# “And” between values parts separate entries of the source, which are not always exact repeats. Identical values can stand only once. After the bases stand the sugars from the 5' end (letter, count) and the backbone: PS all phosphorothioate, else s phosphorothioate and o phosphodiester by linkage. Methylation of C is not given here. e = 2'-O-(2-methoxyethyl) (MOE); k = constrained ethyl (cEt); d = 2'-deoxy (DNA)
# Target: SOD1
# Details: ASO
sequence,measurement,setting,value
"TTAATGTTTATCAGGAT (sugars e2 k2 d8 k2 e3, linkages s1 o2 s9 o2 s2)",target mRNA inhibition,"A431, 0.12 µM",12%
same,target mRNA inhibition,"A431, 0.6 µM",36%
same,target mRNA inhibition,"A431, 3 µM",49%
same,target mRNA inhibition,"A431, 15 µM",72%
same,target mRNA inhibition,"HepG2, 0.222 µM",67%
same,target mRNA inhibition,"HepG2, 0.667 µM",90%
same,target mRNA inhibition,"HepG2, 2 µM",97%
same,target mRNA inhibition,"HepG2, 6 µM",94%
"CCCACACCTTCACTGGT (sugars e3 k2 d7 k2 e3, PS)",target mRNA inhibition,"HepG2, 3 µM",18%
"TACAGCTAGCAGGATAA (sugars e2 k2 d9 k2 e2, PS)",target mRNA inhibition,"HepG2, 0.1875 µM",24%
same,target mRNA inhibition,"HepG2, 0.75 µM",71%
same,target mRNA inhibition,"HepG2, 3 µM",85%
same,target mRNA inhibition,"HepG2, 4 µM",86%
same,target mRNA inhibition,"HepG2, 12 µM",98%
"GTCTGGCAAAATACAGG (sugars e2 k2 d8 k2 e3, PS)",target mRNA inhibition,"HepG2, 5 µM",30%
"AGACCTCCGCGCCTCGCCCA (sugars e5 d10 e5, PS)",target mRNA inhibition,"HepG2, 12 µM",84%
"TGCCCAAGTCATCTGCT (sugars e3 k2 d7 k2 e3, PS)",target mRNA inhibition,"HepG2, 3 µM",90%
"AGATTACAGTGTTTAAT (sugars e3 k2 d7 k2 e3, PS)",target mRNA inhibition,"HepG2, 3 µM",45%
"AACAGATGAGTTAAGGG (sugars e2 k2 d8 k2 e3, PS)",target mRNA inhibition,"HepG2, 0.1875 µM",32%
same,target mRNA inhibition,"HepG2, 0.75 µM",55%
same,target mRNA inhibition,"HepG2, 3 µM",78%
same,target mRNA inhibition,"HepG2, 4 µM",73%
same,target mRNA inhibition,"HepG2, 12 µM",93%
"CCGTCGCCCTTCAGCAC (sugars e2 k2 d8 k2 e3, PS)",target mRNA inhibition,"HepG2, 4 µM",71%
"TTTATTCACAGGCTTGA (sugars e2 k2 d8 k2 e3, PS)",target mRNA inhibition,"HepG2, 5 µM",44%
"GCTTGAATGACAAAGAA (sugars e2 k2 d9 k2 e2, PS)",target mRNA inhibition,"HepG2, 5 µM",32%
"AAATCTTCCAAGTGATC (sugars e3 k2 d7 k2 e3, PS)",target mRNA inhibition,"HepG2, 3 µM",4%
"TCATAATAAGTGCCATACAG (sugars e5 d10 e5, PS)",target mRNA inhibition,"HepG2, 5 µM",0%
"ATACAGGTCATTGAAAC (sugars e2 k2 d8 k2 e3, PS)",target mRNA inhibition,"HepG2, 5 µM",33%
"AATCTTCCAAGTGATCATAA (sugars e5 d10 e5, PS)",target mRNA inhibition,"HepG2, 5 µM",4%
"TCCAAGGGAATGTTTAT (sugars e2 k2 d9 k2 e2, PS)",target mRNA inhibition,"HepG2, 4 µM",57%
"ACCCATCTGTGATTTAA (sugars e2 k2 d9 k2 e2, PS)",target mRNA inhibition,"HepG2, 5 µM",44%
"CTGTGATTTAAGTCTGG (sugars e2 k2 d9 k2 e2, PS)",target mRNA inhibition,"HepG2, 5 µM",61%
"TAGGCCAGACCTCCGCGCCT (sugars e5 d10 e5, PS)",target mRNA inhibition,"HepG2, 4 µM",33%
"GCAGGAGACTACGACGCAAA (sugars e5 d10 e5, PS)",target mRNA inhibition,"HepG2, 4 µM",33%
"AAGTGCCATACAGGGTT (sugars e2 k2 d9 k2 e2, PS)",target mRNA inhibition,"HepG2, 5 µM",21%
"GAAATTCTGACAAGTTT (sugars e3 k2 d7 k2 e3, PS)",target mRNA inhibition,"HepG2, 3 µM",14%
"ACAGTGTTTAATGTTTA (sugars e2 k2 d8 k2 e3, PS)",target mRNA inhibition,"HepG2, 0.1875 µM",39%
same,target mRNA inhibition,"HepG2, 0.75 µM",69%
same,target mRNA inhibition,"HepG2, 3 µM",82%
same,target mRNA inhibition,"HepG2, 4 µM",78%
same,target mRNA inhibition,"HepG2, 5 µM",83%
same,target mRNA inhibition,"HepG2, 12 µM",84% and 86%
"AGCAGGATAACAGATGA (sugars e3 k2 d7 k2 e3, PS)",target mRNA inhibition,"HepG2, 3 µM",45%
"AAGTTTAATACCCATCT (sugars e2 k2 d9 k2 e2, PS)",target mRNA inhibition,"HepG2, 5 µM",59%
"CAGTTTCTCACTACAGG (sugars e2 k2 d8 k2 e3, PS)",target mRNA inhibition,"HepG2, 5 µM",38%
"CTTTTAAGATTACAGTG (sugars e2 k2 d8 k2 e3, PS)",target mRNA inhibition,"HepG2, 5 µM",62%
"CTGGCAAAATACAGGTC (sugars e3 k2 d7 k2 e3, PS)",target mRNA inhibition,"HepG2, 3 µM",18%
"GTGTTTAATGTTTATCA (sugars e2 k2 d8 k2 e3, PS)",target mRNA inhibition,"HepG2, 0.1875 µM",44%
same,target mRNA inhibition,"HepG2, 0.75 µM",71%
same,target mRNA inhibition,"HepG2, 3 µM",83%
same,target mRNA inhibition,"HepG2, 5 µM",86%
same,target mRNA inhibition,"HepG2, 12 µM",84%
"ATGCAATGGTCTCCTGAGAG (sugars e5 d10 e5, PS)",target mRNA inhibition,"HepG2, 5 µM",0%
"ACACAATTACACTTTTAAGA (sugars e5 d10 e5, PS)",target mRNA inhibition,"HepG2, 5 µM",0%
"CTTCCCCACACCTTCAC (sugars e3 k2 d7 k2 e3, PS)",target mRNA inhibition,"HepG2, 3 µM",29%
"CAAGGGAATGTTTATTG (sugars e2 k2 d8 k2 e3, PS)",target mRNA inhibition,"HepG2, 4 µM",43%
"TTATTGGGCGATCCCAA (sugars e2 k2 d9 k2 e2, PS)",target mRNA inhibition,"HepG2, 4 µM",41%
"CCAAGTCATCTGCTTTT (sugars e3 k2 d7 k2 e3, PS)",target mRNA inhibition,"HepG2, 3 µM",50%
"CTGGCAAAATACAGGTC (sugars e2 k2 d9 k2 e2, PS)",target mRNA inhibition,"HepG2, 5 µM",53%
"TTCCAAGTGATCATAAATCA (sugars e5 d10 e5, PS)",target mRNA inhibition,"HepG2, 5 µM",18%
"GATAACAGATGAGTTAA (sugars e3 k2 d7 k2 e3, PS)",target mRNA inhibition,"HepG2, 3 µM",11%
"CAGACTACATCCAAGGG (sugars e2 k2 d8 k2 e3, PS)",target mRNA inhibition,"HepG2, 0.1875 µM",25%
same,target mRNA inhibition,"HepG2, 0.75 µM",60%
same,target mRNA inhibition,"HepG2, 3 µM",84%
same,target mRNA inhibition,"HepG2, 4 µM",81%
same,target mRNA inhibition,"HepG2, 12 µM",91%
"CTAGGCCACGCCGAGGTCCT (sugars e5 d10 e5, PS)",target mRNA inhibition,"HepG2, 4 µM",39%
"CCCTTCAGCACGCACACGGC (sugars e5 d10 e5, PS)",target mRNA inhibition,"HepG2, 0.1875 µM",17%
same,target mRNA inhibition,"HepG2, 0.75 µM",26%
same,target mRNA inhibition,"HepG2, 3 µM",59%
same,target mRNA inhibition,"HepG2, 4 µM",37%
same,target mRNA inhibition,"HepG2, 12 µM",83%

# Source: the OligoGym collection
